Assays:
[1] = tested on: aspirin induced gastric lesions; settings: dose 62.5 mg/kg; cited from earlier work
[2] = tested on: indomethacin induced gastric lesions; settings: dose 15.6 mg/kg; cited from earlier work
[3] = tested on: patients with gastric reflux / heartburn; experiment: Patient reports of relief of gastric reflux / heartburn after oral L-arginine compositions; assay type: in vivo, human; settings: for relief of gastric reflux due to stress: one patient
Excerpt: A patient having ulcerations in the upper small intestine who routinely took omeprazole or lansoprazole complained of heartburn on laying down.

[4] = tested on: small bowel ulcers; settings: rats; yeast RNA together with L-arginine; cited from earlier work

Row | SMILES | prevention of aspirin induced gastric lesions [1] | prevention of indomethacin induced gastric lesions [2] | L-arginine required for complete control of the gastric reflux ([3]; daily, severely afflicted patient) | time to complete cessation of all symptoms ([3]; one patient with reflux due to stress, L-arginine 1 gram dose) | relief of gastric reflux due to stress ([3]; L-arginine 1 gram dose) | decrease in ulcer number [4]
1 | NC(=O)CC[C@H](N)C(=O)O [Glutamine, L-glutamine] | completely ineffective | ineffective |  |  |  | 
2 | N=C(N)NCCC[C@H](N)C(=O)O [L-arginine] |  |  | 1 to 4 g | complete cessation of all symptoms within one minute | immediate relief | 34%
3 | O=C([O-])[O-].[Ca+2] [calcium carbonate antacids, calcium carbonate, reference compound] |  |  |  |  | no relief | 

— US20070203242A1, “Method for treating gastric reflux” (priority 2006, published 2007)
